{"source": "paper PMC7916669", "about": "“Chemical Constituent Profiling of Phyllostachys heterocycla var. Pubescens with Selective Cytotoxic Polar Fraction through EGFR Inhibition in HepG2 Cells” (Molecules, 2021)", "molecular_target": "T1, EGFR (epidermal growth factor receptor tyrosine kinase) (Homo sapiens, UniProt P00533)", "T1 construct": "EGFR cytoplasmic domain (EGFR-CD, amino acids 645–1186), (His)6-tagged", "T1 sequence (P00533 669-1210)": "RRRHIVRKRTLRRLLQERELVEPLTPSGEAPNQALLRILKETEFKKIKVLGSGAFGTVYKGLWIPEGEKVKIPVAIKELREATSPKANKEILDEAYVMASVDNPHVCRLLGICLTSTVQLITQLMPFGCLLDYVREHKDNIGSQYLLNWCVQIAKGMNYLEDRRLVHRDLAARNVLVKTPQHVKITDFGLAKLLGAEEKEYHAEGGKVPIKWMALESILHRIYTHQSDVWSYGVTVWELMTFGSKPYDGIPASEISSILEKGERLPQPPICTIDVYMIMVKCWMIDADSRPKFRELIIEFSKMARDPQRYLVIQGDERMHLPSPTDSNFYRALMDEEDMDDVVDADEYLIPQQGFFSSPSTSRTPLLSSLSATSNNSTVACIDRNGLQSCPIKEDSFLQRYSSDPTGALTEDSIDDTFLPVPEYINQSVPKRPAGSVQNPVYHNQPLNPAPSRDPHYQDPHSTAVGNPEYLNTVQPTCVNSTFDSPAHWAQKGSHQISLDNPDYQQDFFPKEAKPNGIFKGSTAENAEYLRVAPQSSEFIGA", "assay": "EGFR-TK autophosphorylation assay, DELFIA/time-resolved fluorometry, recombinant enzyme", "type": "biochemical", "conditions": "read-out: In Vitro EGFR Activity(nM) *"}
{"smiles": "COC(=O)/C=C/c1ccc(O)cc1OC", "note": "[compound 1, 7-hydroxy, 5-methoxy, methyl cinnamate]", "values": [{"measurement": "IC50", "result": 98.6, "unit": "nM"}]}
